Experimental data published in patent publication US20240398784A1, “C-LINKED ISOQUINOLINE AMIDES AS LRRK2 INHIBITORS, PHARMACEUTICAL COMPOSITIONS, AND USES THEREOF” (Merck Sharp & Dohme LLC, priority 2021, published 2024).

target: LRRK2 G2019S (Homo sapiens, UniProt Q5S007, G2019S); assay: LRRK2 G2019S Km ATP LanthaScreen assay; type: biochemical; conditions: read-out: LRRK2 pIC50 (converted)
Method: Unless otherwise noted, all reactions are magnetically stirred. Unless otherwise noted, when diethyl ether is used in the experiments described below, it is Fisher ACS certified material and is stabilized with BHT. Unless otherwise noted, “concentrated” and/or “solvent removed under reduced pressure” means evaporating the solvent from a solution or mixture using a rotary evaporator or vacuum pump. Unless otherwise noted, flash chromatography is carried out on a Teledyne Isco (Lincoln, NE), Analogix (Burlington, WI), or Biotage (Stockholm, SWE) automated chromatography system using a commercially available cartridge as the column. Columns may be purchased from Teledyne Isco, Analogix, Biotage, Varian (Palo Alto, CA), or Supelco (Bellefonte, PA) and are usually filled with silica gel as the stationary phase. Reverse phase prep-HPLC conditions, where used, can be found at the end of each experimental section. Aqueous solutions were concentrated on a Genevac (Ipswich, ENG) or by freeze-drying/lyophilization.

Chain of LRRK2 G2019S (Q5S007 whole entry G2019S): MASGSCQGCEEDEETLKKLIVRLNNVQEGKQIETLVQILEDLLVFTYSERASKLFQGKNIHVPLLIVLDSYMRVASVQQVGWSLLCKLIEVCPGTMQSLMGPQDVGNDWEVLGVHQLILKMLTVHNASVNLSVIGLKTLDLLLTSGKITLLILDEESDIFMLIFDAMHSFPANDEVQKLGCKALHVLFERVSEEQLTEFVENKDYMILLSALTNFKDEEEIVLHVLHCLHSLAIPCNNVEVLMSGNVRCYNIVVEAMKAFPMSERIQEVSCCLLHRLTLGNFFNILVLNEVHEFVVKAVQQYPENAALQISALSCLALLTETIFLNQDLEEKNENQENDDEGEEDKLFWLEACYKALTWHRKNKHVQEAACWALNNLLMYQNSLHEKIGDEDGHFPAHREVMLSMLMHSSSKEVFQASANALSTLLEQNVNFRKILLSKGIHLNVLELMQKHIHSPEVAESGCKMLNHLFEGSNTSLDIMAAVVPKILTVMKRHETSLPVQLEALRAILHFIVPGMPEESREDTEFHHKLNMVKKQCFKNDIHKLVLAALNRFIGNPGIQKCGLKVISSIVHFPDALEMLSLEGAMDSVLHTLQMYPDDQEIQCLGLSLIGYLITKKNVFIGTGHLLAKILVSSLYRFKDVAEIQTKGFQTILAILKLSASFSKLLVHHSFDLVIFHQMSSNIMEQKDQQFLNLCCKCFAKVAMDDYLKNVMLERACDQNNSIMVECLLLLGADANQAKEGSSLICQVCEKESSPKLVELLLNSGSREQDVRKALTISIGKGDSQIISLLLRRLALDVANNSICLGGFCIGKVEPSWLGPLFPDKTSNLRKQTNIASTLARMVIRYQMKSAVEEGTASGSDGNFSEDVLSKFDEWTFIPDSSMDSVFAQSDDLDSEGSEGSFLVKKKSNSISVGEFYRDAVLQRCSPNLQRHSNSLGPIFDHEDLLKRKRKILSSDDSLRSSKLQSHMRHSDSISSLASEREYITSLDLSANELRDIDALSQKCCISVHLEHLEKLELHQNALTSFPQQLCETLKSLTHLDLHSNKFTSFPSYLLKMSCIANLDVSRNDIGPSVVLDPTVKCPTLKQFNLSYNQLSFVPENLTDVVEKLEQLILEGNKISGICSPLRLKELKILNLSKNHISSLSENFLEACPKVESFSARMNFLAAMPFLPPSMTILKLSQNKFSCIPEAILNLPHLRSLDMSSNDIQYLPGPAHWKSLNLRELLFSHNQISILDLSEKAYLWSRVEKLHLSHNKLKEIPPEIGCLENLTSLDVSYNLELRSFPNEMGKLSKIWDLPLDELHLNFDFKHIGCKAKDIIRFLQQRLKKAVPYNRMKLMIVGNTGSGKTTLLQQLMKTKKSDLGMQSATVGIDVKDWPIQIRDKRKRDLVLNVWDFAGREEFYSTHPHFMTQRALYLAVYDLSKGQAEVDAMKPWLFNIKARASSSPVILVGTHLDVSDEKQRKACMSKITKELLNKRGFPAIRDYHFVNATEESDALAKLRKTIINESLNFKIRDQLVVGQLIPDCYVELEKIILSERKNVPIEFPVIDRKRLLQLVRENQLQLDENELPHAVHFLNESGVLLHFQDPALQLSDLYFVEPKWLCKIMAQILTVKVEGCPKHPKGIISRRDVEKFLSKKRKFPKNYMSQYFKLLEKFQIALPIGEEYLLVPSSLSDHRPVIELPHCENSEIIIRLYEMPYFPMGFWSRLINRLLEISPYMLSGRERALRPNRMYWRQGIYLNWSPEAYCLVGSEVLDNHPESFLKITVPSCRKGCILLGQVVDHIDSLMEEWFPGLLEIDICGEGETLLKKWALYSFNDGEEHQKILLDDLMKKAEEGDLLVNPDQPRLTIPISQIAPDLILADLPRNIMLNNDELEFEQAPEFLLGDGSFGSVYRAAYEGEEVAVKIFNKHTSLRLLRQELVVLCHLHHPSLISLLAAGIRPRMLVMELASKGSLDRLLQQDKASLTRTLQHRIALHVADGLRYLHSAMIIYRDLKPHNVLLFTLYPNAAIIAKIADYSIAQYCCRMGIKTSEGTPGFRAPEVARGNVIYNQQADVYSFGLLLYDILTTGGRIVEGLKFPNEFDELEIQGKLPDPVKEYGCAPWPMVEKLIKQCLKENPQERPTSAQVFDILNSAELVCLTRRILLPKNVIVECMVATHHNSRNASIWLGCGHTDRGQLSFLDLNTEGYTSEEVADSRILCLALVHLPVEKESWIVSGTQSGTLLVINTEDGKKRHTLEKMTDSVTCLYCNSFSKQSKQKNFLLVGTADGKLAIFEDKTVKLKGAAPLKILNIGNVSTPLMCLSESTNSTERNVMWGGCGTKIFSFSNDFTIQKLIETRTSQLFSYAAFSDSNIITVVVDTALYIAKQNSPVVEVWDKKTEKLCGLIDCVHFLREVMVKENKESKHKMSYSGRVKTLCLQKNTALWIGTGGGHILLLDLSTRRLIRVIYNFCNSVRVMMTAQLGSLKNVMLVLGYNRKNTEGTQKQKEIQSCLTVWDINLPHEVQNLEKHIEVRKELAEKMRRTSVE

Compound	IC50 [nM]
CC1(N2CCC(c3cc4cc(NC(=O)C5C6COCC65)ncc4cc3Cl)CC2)CCOC1 (single isomer, unassigned) [Ex-6.11, N-(7-chloro-6-(1-(3-methyltetrahydrofuran-3-yl)piperidin-4-yl)isoquinolin-3-yl)-3-oxabicyclo[3.1.0]hexane-6-carboxamide]	1.95
CN1CCOC(CC(=O)Nc2cc3cc(C4(C#N)CC45CC5)ccc3cn2)C1 (single isomer, unassigned) [Ex-1.47, (R or S)-N-(6-(1-cyanospiro[2.2]pentan-1-yl)isoquinolin-3-yl)-2-(4-methylmorpholin-2-yl)acetamide]	20
CCC1C(C(=O)Nc2cc3cc(C4CC(C#N)C4)c(Cl)cc3cn2)C1c1cnn(C)c1 (stereo not shown) [Ex-9.17, N-(7-chloro-6-(3-cyanocyclobutyl)isoquinolin-3-yl)-2-ethyl-3-(1-methyl-1H-pyrazol-4-yl)cyclopropane-1-carboxamide]	33.1
COC1CN(C2CCC(c3cc4cc(NC(=O)C5CC56CCOCC6)ncc4cc3Cl)CC2)C1 (single isomer, unassigned) [Ex-11.3, N-(7-chloro-6-(4-(3-methoxyazetidin-1-yl)cyclohexyl)isoquinolin-3-yl)-6-oxaspiro[2.5]octane-1-carboxamide]	0.0813
Cn1cc(C(=O)Nc2cc3cc(C4CCN(C5COC5)CC4)c(Cl)cc3cn2)cn1 [Ex-1.36, N-(7-chloro-6-(1-(oxetan-3-yl)piperidin-4-yl)isoquinolin-3-yl)-1-methyl-1H-pyrazole-4-carboxamide]	5.89
CC1CC1(C#N)c1ccc2cnc(NC(=O)C3CC3)cc2c1 (single isomer, unassigned) [Ex-18.8, (R or S)-N-(6-(1-cyano-2-methylcyclopropyl)isoquinolin-3-yl)cyclopropanecarboxamide]	5.37
CC1(C)CCC(C(=O)Nc2cc3cc(C4CCC(N5CCC(F)C5)CC4)c(Cl)cc3cn2)CO1 (single isomer, unassigned) [Ex-5.20, N-(7-chloro-6-(4-(3-fluoropyrrolidin-1-yl)cyclohexyl)isoquinolin-3-yl)-6,6-dimethyltetrahydro-2H-pyran-3-carboxamide]	10.5
N#CC1(c2ccc3cnc(NC(=O)C4CC45CCOC5)cc3c2)CC12CC2 (stereo not shown) [Ex-2.66]	14.5
Cn1cc(C2CC2C(=O)Nc2cc3cc(C4(C#N)CC45CC5)ccc3cn2)cn1 (single isomer, unassigned) [Ex-1.24, (1R,2R or 1S,2S)-N-(6-((R or S)-1-cyanospiro[2.2]pentan-1-yl)isoquinolin-3-yl)-2-(1-methyl-1H-pyrazol-4-yl)cyclopropane-1-carboxamide]	0.0813
CCC1C(C(=O)Nc2cc3cc(C(C)COC)c(Cl)cc3cn2)C1c1cnn(C)c1 (single isomer, unassigned) [Ex-9.13, N-(7-chloro-6-(1-methoxypropan-2-yl)isoquinolin-3-yl)-2-ethyl-3-(1-methyl-1H-pyrazol-4-yl)cyclopropane-1-carboxamide]	6.92
CC1(C)CC(C(=O)Nc2cc3cc(C4CCC(N5CCC(F)C5)CC4)c(Cl)cc3cn2)CCO1 (single isomer, unassigned) [Ex-5.14, N-(7-chloro-6-(4-(3-fluoropyrrolidin-1-yl)cyclohexyl)isoquinolin-3-yl)-2,2-dimethyltetrahydro-2H-pyran-4-carboxamid]	38.9
Cn1cc(N2CCC(C(=O)Nc3cc4cc(C5(C#N)CC56CC6)ccc4cn3)C2)cn1 (stereo not shown) [Ex-2.76]	26.3
CC1(N2CCC(c3cc4cc(NC(=O)C5CC56CCOCC6)ncc4cc3Cl)CC2)CCOC1 (stereo not shown) [Ex-2.23]	0.166

Second part, the compound after the results:

IC50 [nM]	Compound
1.74	CC1(N2CCC(c3cc4cc(NC(=O)C5CC5c5ccncc5)ncc4cc3Cl)CC2)COCC1O (single isomer, unassigned) [Ex-4.22, N-(7-chloro-6-(1-(4-hydroxy-3-methyltetrahydrofuran-3-yl)piperidin-4-yl)isoquinolin-3-yl)-2-(pyridin-4-yl)cyclopropane-1-carboxamide]
0.132	Cc1cc2cnc(NC(=O)C3CC3c3ccccn3)cc2cc1C1CCN(C2(C)CCOC2)CC1 (single isomer, unassigned) [Ex-16.9, N-(7-methyl-6-(1-(3-methyltetrahydrofuran-3-yl)piperidin-4-yl)isoquinolin-3-yl)-2-(pyridin-2-yl)cyclopropane-1-carboxamide]
2.45	CC(C)n1nccc1C1CC1C(=O)Nc1cc2cc(C3CCN(C4(C)COCC4O)CC3)c(Cl)cc2cn1 (single isomer, unassigned) [Ex-4.64, N-(7-chloro-6-(1-(4-hydroxy-3-methyltetrahydrofuran-3-yl)piperidin-4-yl)isoquinolin-3-yl)-2-(1-isopropyl-1H-pyrazol-5-yl)cyclopropane-1-carboxamide]
7.41	Cc1cc2cnc(NC(=O)C3CCOC(C)(C)C3)cc2cc1C1CCN(C2(C)COCC2O)CC1 (stereo not shown) [Ex-2.50]
11	COCC(C)c1cc2cc(NC(=O)C3CC3c3ccccn3)ncc2cc1Cl (single isomer, unassigned) [Ex-9.19, N-(7-chloro-6-(1-methoxypropan-2-yl)isoquinolin-3-yl)-2-(pyridin-2-yl)cyclopropane-1-carboxamide]
1.66	CC1(N2CCC(c3cc4cc(NC(=O)C5CC56CCOCC6)ncc4cc3Cl)CC2)COCC1F (single isomer, unassigned) [Ex-6.25, N-(7-chloro-6-(1-(4-fluoro-3-methyltetrahydrofuran-3-yl)piperidin-4-yl)isoquinolin-3-yl)-6-oxaspiro[2.5]octane-1-carboxamide]
7.24	CC1(N2CCC(c3cc4cc(NC(=O)C5CC5C(F)F)ncc4cc3Cl)CC2)COCC1O (single isomer, unassigned) [Ex-10.9, N-(7-chloro-6-(1-(4-hydroxy-3-methyltetrahydrofuran-3-yl)piperidin-4-yl)isoquinolin-3-yl)-2-(difluoromethyl)cyclopropane-1-carboxamide]
0.0813	CC(C)(O)C1CC1C(=O)Nc1cc2cc(C3CCN(C4(C)COCC4O)CC3)c(Cl)cc2cn1 (stereo not shown) [Ex-2.21]
45.7	CC1(N2CCC(c3cc4cc(NC(=O)C5CC5c5cccnc5)ncc4cc3Cl)CC2)COCC1O (single isomer, unassigned) [Ex-4.41, N-(7-chloro-6-(1-(4-hydroxy-3-methyltetrahydrofuran-3-yl)piperidin-4-yl)isoquinolin-3-yl)-2-(pyridin-3-yl)cyclopropane-1-carboxamide]
0.0813	CC1(N2CCC(c3cc4cc(NC(=O)C5C6CCOCC65)ncc4cc3Cl)CC2)COCC1F (single isomer, unassigned) [Ex-6.40, N-(7-chloro-6-(1-(4-fluoro-3-methyltetrahydrofuran-3-yl)piperidin-4-yl)isoquinolin-3-yl)-3-oxabicyclo[4.1.0]heptane-7-carboxamide]
29.5	COCC(C)c1cc2cc(NC(=O)C3CC3c3ccccn3)ncc2cc1Cl (single isomer, unassigned) [Ex-9.20, N-(7-chloro-6-(1-methoxypropan-2-yl)isoquinolin-3-yl)-2-(pyridin-2-yl)cyclopropane-1-carboxamide]
1.82	CC1(N2CCC(c3cc4cc(NC(=O)C5CC56CCOC6)ncc4cc3Cl)CC2)COCC1F (single isomer, unassigned) [Ex-6.7, (R or S)-N-(7-chloro-6-(1-((3R,4R or 3S,4S)-4-fluoro-3-methyltetrahydrofuran-3-yl)piperidin-4-yl)isoquinolin-3-yl)-5-oxaspiro [2.4] heptane-1-carboxamide]
0.0813	Cn1ncc(C2CC2C(=O)Nc2cc3cc(C4CCN(C5(C)COCC5O)CC4)c(Cl)cc3cn2)n1 (racemic) [Ex-20.2, (1R,2R and 1S,2S)-N-(7-chloro-6-(1-(4-hydroxy-3-methyltetrahydrofuran-3-yl)piperidin-4-yl)isoquinolin-3-yl)-2-(2-methyl-2H-1,2,3-triazol-4-yl)cyclopropane-1-carboxamide]
0.0813	Cn1cc(C2CC2C(=O)Nc2cc3cc(C4CCN(C5(C)COCC5O)CC4)c(Cl)cc3cn2)cn1 (stereo not shown) [Ex-2.37]
0.195	CC1(N2CCC(c3cc4cc(NC(=O)C5CC56CCOCC6)ncc4cc3F)CC2)COCC1O (single isomer, unassigned) [Ex-8.3, N-(7-fluoro-6-(1-(4-hydroxy-3-methyltetrahydrofuran-3-yl)piperidin-4-yl)isoquinolin-3-yl)-6-oxaspiro[2.5]octane-1-carboxamide]
0.0813	CC1(N2CCC(c3cc4cc(NC(=O)C5CC5C5CCCCO5)ncc4cc3Cl)CC2)COCC1O (single isomer, unassigned) [Ex-4.71, N-(7-chloro-6-(1-(4-hydroxy-3-methyltetrahydrofuran-3-yl)piperidin-4-yl)isoquinolin-3-yl)-2-(tetrahydro-2H-pyran-2-yl)cyclopropane-1-carboxamide]
7.08	CC1(C)C(C(=O)Nc2cc3cc(C4CCN(C5(C)COCC5O)CC4)c(Cl)cc3cn2)C1c1ccccn1 (single isomer, unassigned) [Ex-4.45, N-(7-chloro-6-(1-(4-hydroxy-3-methyltetrahydrofuran-3-yl)piperidin-4-yl)isoquinolin-3-yl)-2,2-dimethyl-3-(pyridin-2-yl)cyclopropane-1-carboxamide]
0.0813	CC1(N2CCC(c3cc4cc(NC(=O)C5CC5c5ccccn5)ncc4cc3F)CC2)COCC1O (single isomer, unassigned) [Ex-8.4, N-(7-fluoro-6-(1-(4-hydroxy-3-methyltetrahydrofuran-3-yl)piperidin-4-yl)isoquinolin-3-yl)-2-(pyridin-2-yl)cyclopropane-1-carboxamide]
